The source of these data is article PMC5656836, “Distinct activation mechanisms trigger the trypanocidal activity of DNA damaging prodrugs” (Molecular Microbiology, 2017).

One may read the EC50 as the concentration at which the effect is half-maximal.

Common to all, as to format: cell-based
The subject of experiment [1] is bloodstream form T. brucei. Kind of experiment: Growth inhibition of wild type / control bloodstream form T. brucei (resazurin). Particulars: Trypanosoma brucei.
Another experiment relates to T. cruzi epimastigotes. Kind of experiment: Growth inhibition of T. cruzi epimastigotes (resazurin). Particulars: Trypanosoma cruzi, 336 h, read-out: T. cruzi EC50. A general note: Resazurin is reduced to fluorescent resorufin, in cell work by metabolically active cells.
In a further experiment the test system is L. major promastigotes. Put plainly: Growth inhibition of L. major promastigotes (resazurin). To be noted: for EC50: Leishmania major, 144 h, read-out: L. major EC50.
A further experiment relates to RH1^RC1 T. brucei. Put plainly: microbe, parasite or virus in culture. Particulars: for EC50: Trypanosoma brucei, read-out: EC50 RH1^RC1.
Setting [2] is: 72 h, bloodstream form, 3 days, Table 1, activity of some compounds previously reported (Hall et al., 2012), read-out: T. brucei EC50.

Structures are written as SMILES. Like-named read-outs stand apart in the source and are kept apart here.
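Throughout, for ratio (fold difference in EC50 between RH1^RC1 and wild type): resistant clone selected by stepwise exposure to the aziridinyl benzoquinone prodrug in culture.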

For the compound `O=C1C(Br)=C(N2CC2)C(=O)C(Br)=C1N1CC1` [ABQ3], the EC50 in experiment [1] (setting [2]) was 0.4 ± 0.03 µM; in the experiment with T. cruzi epimastigotes (epimastigotes, 14 days), 6.2 ± 1.16 µM; in the experiment on L. major promastigotes (promastigotes, 6 days), 0.199 ± 0.004 µM.
Consider `O=C1C(F)=C(N2CC2)C(=O)C(F)=C1N1CC1` [ABQ4], for which the EC50 came to 1.18 ± 0.16 µM in experiment [1] (setting [2]); 0.106 ± 0.025 µM with T. cruzi epimastigotes (epimastigotes, 14 days); 0.663 ± 0.006 µM in the experiment on L. major promastigotes (promastigotes, 6 days).
`CC(C)NC1=C(N2CC2)C(=O)C(NC(C)C)=C(N2CC2)C1=O` [ABQ13]: the EC50 was more than 10 µM in experiment [1] (72 h, read-out: T. brucei EC50); 5.55 ± 0.24 µM in the experiment with T. cruzi epimastigotes; more than 10 µM with L. major promastigotes.
`O=C1C(F)=C(N2CC2)C(=O)C(N2CCOCC2)=C1N1CC1` [ABQ14]: the EC50 in experiment [1] (72 h, read-out: T. brucei EC50) is more than 10 µM; in the experiment with T. cruzi epimastigotes it was 0.445 ± 0.03 µM; with L. major promastigotes, 2.27 ± 0.017 µM.
For the compound `CC(=O)NC1=C(N2CC2)C(=O)C(NC(C)=O)=C(N2CC2)C1=O` [ABQ15], the EC50 in experiment [1] (72 h, read-out: T. brucei EC50) is more than 10 µM; with T. cruzi epimastigotes, 3.31 ± 0.2 µM; with L. major promastigotes it was more than 10 µM.
For `CC1CN1C1=C(Br)C(=O)C(N2CC2C)=C(Br)C1=O` (stereo not shown) [ABQ25], the EC50 in experiment [1] (setting [2]) is more than 10 µM. Besides, in the experiment with L. major promastigotes (promastigotes, 6 days), the EC50 stood at 0.08 ± 0.006 µM and the “L. major EC50” value is given as “high potency”.
On to `CC1(C)CN1C1=C(Br)C(=O)C(N2CC2(C)C)=C(Br)C1=O` [ABQ26], for which the EC50 is more than 10 µM in experiment [1] (72 h, read-out: T. brucei EC50); 8.64 ± 0.736 µM in the experiment on T. cruzi epimastigotes; 2.36 ± 0.23 µM in the experiment with L. major promastigotes.
With `CC1CN1C1=C(Cl)C(=O)C(N2CC2C)=C(Cl)C1=O` (stereo not shown) [ABQ27], the EC50 in experiment [1] (setting [2]) was more than 10 µM; in the experiment on T. cruzi epimastigotes (epimastigotes, 14 days), 0.62 ± 0.18 µM; with L. major promastigotes (promastigotes, 6 days) it was 0.21 ± 0.01 µM.
In the case of `CC1CN1C1=C(F)C(=O)C(N2CC2C)=C(F)C1=O` (stereo not shown) [ABQ29], the EC50 in the experiment on T. cruzi epimastigotes (epimastigotes, 14 days) is 0.975 ± 0.025 µM; with L. major promastigotes (promastigotes, 6 days), 0.175 ± 0.005 µM.
Regarding `CCC(=O)NC1=C(N2CC2C)C(=O)C(NC(=O)CC)=C(N2CC2C)C1=O` (stereo not shown) [ABQ33], the EC50 in experiment [1] (72 h, read-out: T. brucei EC50) is more than 10 µM; in the experiment with T. cruzi epimastigotes, more than 10 µM; in the experiment with L. major promastigotes it was 8.157 ± 0.08 µM.
For the compound `CCOC(=O)NC1=C(N2CC2)C(=O)C(NC(=O)OCC)=C(N2CC2)C1=O` [AZQ], the concentration giving a half-maximal response (EC50) in experiment [1] (72 h, read-out: T. brucei EC50) was 8.23 ± 0.272 µM; in the experiment with T. cruzi epimastigotes it was 6 ± 0.283 µM; in the experiment on L. major promastigotes, more than 10 µM.
In the case of `NC(=O)c1cc(N2CC2)c([N+](=O)[O-])cc1[N+](=O)[O-]` [CB1954, reference compound], the figures for the EC50 (in experiment [1] (read-out: EC50 Wild type); in the experiment with RH1^RC1 T. brucei) were 2.16 ± 0.125 µM and 13.1 ± 0.972 µM, respectively.
With `O=NN(CCCl)C(=O)NC1CCCCC1` [Lomustine], the EC50 in experiment [1] (Table 3, BSF T. brucei wild type, read-out: EC50 Wild type) worked out at 16.6 ± 0.443 µM. Further, in the experiment on RH1^RC1 T. brucei, the “ratio (fold difference in EC50 between RH1^RC1 and wild type)” value came out at 0.9; the EC50 worked out at 15.5 ± 0.665 µM.
In the case of `N[C@@H](Cc1ccc(N(CCCl)CCCl)cc1)C(=O)O` [Melphalan], in experiment [1] (read-out: EC50 Wild type), the EC50 came out at 8.74 ± 0.2 µM. In the experiment with RH1^RC1 T. brucei, the “ratio (fold difference in EC50 between RH1^RC1 and wild type)” value turned out to be 1.2; the EC50 came out at 10.4 ± 0.23 µM.
For `CC1CCC(NC(=O)N(CCCl)N=O)CC1` (stereo not shown) [Semustine], the EC50 in experiment [1] (read-out: EC50 Wild type) worked out at 15 ± 3.46 µM; in the experiment on RH1^RC1 T. brucei, 17.1 ± 3.62 µM. Further, the “ratio (fold difference in EC50 between RH1^RC1 and wild type)” value in the experiment on RH1^RC1 T. brucei was determined as 1.1.
For `S=P(N1CC1)(N1CC1)N1CC1` [ThioTEPA, reference compound], the EC50 in experiment [1] (read-out: EC50 Wild type) was determined as 39.4 ± 0.796 µM; with RH1^RC1 T. brucei, 56.3 ± 1.96 µM.
With `C1CN1c1nc(N2CC2)nc(N2CC2)n1` [Triethylenemelamine], the results for the concentration giving a half-maximal response (EC50) (in experiment [1] (read-out: EC50 Wild type); in the experiment on RH1^RC1 T. brucei) were 2.4 ± 0.086 µM and 2.77 ± 0.064 µM, respectively. The “ratio (fold difference in EC50 between RH1^RC1 and wild type)” value with RH1^RC1 T. brucei stood at 1.1.
Consider `O=C(Cn1ccnc1[N+](=O)[O-])NCc1ccccc1` [benznidazole], for which the “Susceptibility of RH1 selected (RH1^RC) lines relative to wild type” value with RH1^RC1 T. brucei is listed as “cross‐resistance”.
